Consider eleven compounds from ChEMBL document CHEMBL1201862, “PubChem BioAssay data set” (2004).

Some test systems named below: MDA-MB-435; RPMI-8226; KM12; SN12C; HT-29; MOLT-4; IGROV-1; ACHN; MDA-N; SK-MEL-28; HOP-92; TK-10; Malme-3M; SF-268; SK-MEL-2; 786-0; HL-60; SF-539; OVCAR-8.
Holding throughout (experiment): NCI tumour cell line growth inhibition, 48 h

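Following 48 hours of exposure in 96-well plates, responses at five concentrations were used to interpolate endpoints linearly. Here, GI50 denotes the concentration required for 50% inhibition of growth.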 The source made the active and inactive calls. No stated cut-off is given here; in the data, active = GI50 up to about 1.1 µM and inactive = higher.

Consider `O=c1cc(-c2ccccc2)nc(-n2[nH]c3c(c2=O)CCCC3)[nH]1`, for which the GI50 was 4.59 µM (inactive) in the assay on MDA-MB-435; 4.17 µM (inactive) in the assay on RPMI-8226; 13.3 µM (inactive) with KM12; 10.8 µM (inactive) in the assay on SN12C; 4.31 µM (inactive) in the assay on HT-29; 2.9 µM (inactive) in the assay on MOLT-4. The GI50 is 4.53 µM (inactive) in the assay on IGROV-1; 3.66 µM (inactive) in the assay on ACHN; 7.29 µM (inactive) in the assay with MDA-N; 4.29 µM (inactive) in the assay with SK-MEL-28; 2.85 µM (inactive) with HOP-92; 5 µM (inactive) in the assay with TK-10. For the same compound, the GI50 was 11.1 µM (inactive) in the assay on Malme-3M; 2.7 µM (inactive) in the assay with SF-268; 2.36 µM (inactive) in the assay on SK-MEL-2; 1.91 µM (inactive) in the assay with 786-0; 2.73 µM (inactive) with HL-60; 4.98 µM (inactive) in the assay with SF-539.
In the case of `Cc1ccccc1NC(=O)CC(=O)NNC(Sc1ccccc1)c1cc(/N=N/c2ccc(Br)cc2)ccc1O` (centres undefined), the GI50 in the assay on MDA-MB-435 is 3.65 µM (inactive); with RPMI-8226, 1.7 µM (inactive); with KM12, 4.79 µM (inactive); with SN12C it was 2.49 µM (inactive); with HT-29, 9.48 µM (inactive); in the assay with MOLT-4, 0.332 µM (active). Moreover, the GI50 in the assay on OVCAR-8 was 0.552 µM (active); with IGROV-1, 8.02 µM (inactive); with ACHN, 1.82 µM (inactive); in the assay with MDA-N it was 3.14 µM (inactive); with SK-MEL-28, 6.52 µM (inactive); with HOP-92, 5.97 µM (inactive). Moreover, the GI50 in the assay with TK-10 was 1.39 µM (inactive); with Malme-3M it was 3.26 µM (inactive); in the assay with SF-268 it was 0.733 µM (active); with SK-MEL-2 it was 5.93 µM (inactive); in the assay with 786-0, 0.551 µM (active); with HL-60 it was 0.277 µM (active). In addition, the GI50 in the assay on SF-539 is 1.37 µM (inactive).
Consider `COC(=O)C1(Cc2ccccc2)Cc2ccccc2C1=O` (centres undefined), for which the GI50 is 22.6 µM (inactive) with MDA-MB-435; 35 µM (inactive) in the assay on RPMI-8226; 27.7 µM (inactive) in the assay with KM12; 35.2 µM (inactive) in the assay with SN12C; 45.3 µM (inactive) in the assay with HT-29; 25.6 µM (inactive) with MOLT-4. For the same compound, the GI50 with OVCAR-8 was 50.8 µM (inactive); in the assay on IGROV-1, 72.8 µM (inactive); in the assay on ACHN it was 36.6 µM (inactive); with MDA-N, 32.1 µM (inactive); in the assay with SK-MEL-28 it was 65.9 µM (inactive); with HOP-92 it was 59.2 µM (inactive). For the same compound, the GI50 in the assay on TK-10 was 57 µM (inactive); in the assay on Malme-3M, 16.3 µM (inactive); with SF-268, 70.8 µM (inactive); in the assay with SK-MEL-2, 19.1 µM (inactive); in the assay with 786-0, 60.5 µM (inactive); with HL-60, 19.7 µM (inactive). Moreover, the GI50 in the assay on SF-539 was > 100 µM (inactive).
With `CCCCCCOc1ccc(NC2=C(Cl)C(=O)c3c(O)ccc(O)c3C2=O)cc1`, the GI50 in the assay on MDA-MB-435 is 1.72 µM (inactive); with RPMI-8226, 1.4 µM (inactive); with KM12 it was 1.88 µM (inactive); in the assay with SN12C, 1.86 µM (inactive); in the assay on HT-29, 2.11 µM (inactive); in the assay with MOLT-4, 2.31 µM (inactive). The GI50 in the assay with OVCAR-8 was 2.09 µM (inactive); in the assay on ACHN, 3.16 µM (inactive); with MDA-N, 2.99 µM (inactive); with SK-MEL-28, 2 µM (inactive); in the assay on HOP-92, 2.72 µM (inactive); with TK-10, 6.32 µM (inactive). Also, the GI50 in the assay on Malme-3M was 1.83 µM (inactive); in the assay on SF-268 it was 6.22 µM (inactive); in the assay on SK-MEL-2 it was 2.96 µM (inactive); in the assay with 786-0, 0.611 µM (active); in the assay with HL-60 it was 1.77 µM (inactive); in the assay with SF-539, 2.4 µM (inactive).
`Clc1ccc2oc(CCc3ccccc3)nc2c1`: the GI50 with MDA-MB-435 was 44.2 µM (inactive); in the assay on RPMI-8226 it was 46.1 µM (inactive); with KM12, 37.3 µM (inactive); in the assay with SN12C, 66.1 µM (inactive); in the assay with HT-29, 33.4 µM (inactive); in the assay on MOLT-4 it was 35.4 µM (inactive). For the same compound, the GI50 with OVCAR-8 is 78.9 µM (inactive); in the assay on IGROV-1, 51.3 µM (inactive); in the assay on ACHN, 47.2 µM (inactive); in the assay with MDA-N, 50.1 µM (inactive); in the assay with SK-MEL-28 it was 72.3 µM (inactive); in the assay on HOP-92 it was 49.4 µM (inactive). In addition, the GI50 is 69.7 µM (inactive) in the assay on TK-10; > 100 µM (inactive) with Malme-3M; 87.9 µM (inactive) in the assay on SF-268; 30.6 µM (inactive) in the assay with SK-MEL-2; 53.8 µM (inactive) in the assay with 786-0; 34.7 µM (inactive) in the assay with HL-60. In addition, the GI50 in the assay with SF-539 was > 100 µM (inactive).
For the compound `O=C1c2c(Br)sc(Br)c2[C@@H](O)[C@H]1O`, the GI50 in the assay with MDA-MB-435 is 10.7 µM (inactive); in the assay on RPMI-8226, 21.7 µM (inactive); in the assay on KM12 it was 21.2 µM (inactive); with SN12C, 16.3 µM (inactive); in the assay with HT-29 it was 19.1 µM (inactive); in the assay with MOLT-4, 5.97 µM (inactive). Moreover, the GI50 with OVCAR-8 is 14.1 µM (inactive); in the assay on IGROV-1, 18.2 µM (inactive); in the assay with ACHN it was 18 µM (inactive); in the assay on MDA-N it was 16.3 µM (inactive); with SK-MEL-28, 19.5 µM (inactive); in the assay with HOP-92, 19.2 µM (inactive). Moreover, the GI50 was 53.7 µM (inactive) with TK-10; 20.4 µM (inactive) with Malme-3M; 10.8 µM (inactive) with SF-268; 17.1 µM (inactive) in the assay on SK-MEL-2; 15.2 µM (inactive) in the assay on 786-0; 9.14 µM (inactive) in the assay with HL-60. In addition, the GI50 in the assay with SF-539 is 15.9 µM (inactive).
For the compound `CCN(CC)C(=S)SC1C(=O)NC(=O)NC1=O`, the GI50 in the assay on MDA-MB-435, in the assay with RPMI-8226, in the assay with KM12, with SN12C, with HT-29 and with MOLT-4 was > 100 µM (inactive) throughout. The GI50 in the assay on OVCAR-8, in the assay with IGROV-1, in the assay with ACHN, with MDA-N, with SK-MEL-28 and in the assay on HOP-92 was > 100 µM (inactive) each time. For the same compound, the GI50 in the assay on TK-10, in the assay with Malme-3M, with SF-268, with SK-MEL-2, in the assay with 786-0 and with HL-60 was > 100 µM (inactive) throughout. Also, the GI50 in the assay on SF-539 was > 100 µM (inactive).
Consider `CCCCc1c2c(nc3c1CCCC3O)CCCC2` (centres undefined), for which the GI50 was > 100 µM (inactive) with MDA-MB-435; > 100 µM (inactive) in the assay with RPMI-8226; > 100 µM (inactive) in the assay on KM12; > 100 µM (inactive) in the assay on SN12C; 85.3 µM (inactive) with HT-29; 71 µM (inactive) in the assay on MOLT-4. The GI50 is > 100 µM (inactive) with OVCAR-8; > 100 µM (inactive) with IGROV-1; 80 µM (inactive) with ACHN; > 100 µM (inactive) in the assay on MDA-N; 79.4 µM (inactive) with HOP-92; > 100 µM (inactive) in the assay with TK-10. Moreover, the GI50 with Malme-3M, in the assay with SF-268, in the assay on SK-MEL-2, in the assay with 786-0, with HL-60 and in the assay with SF-539 was > 100 µM (inactive) each time.
Regarding `O=C(NC1=C(Cl)C(=O)c2ccccc2C1=O)c1ccc(F)cc1`, the GI50 is 4.45 µM (inactive) in the assay on MDA-MB-435; 2.51 µM (inactive) in the assay on RPMI-8226; 3.08 µM (inactive) in the assay with KM12; 3.41 µM (inactive) in the assay on SN12C; 3.49 µM (inactive) in the assay on HT-29; 2.24 µM (inactive) with MOLT-4. In addition, the GI50 in the assay on OVCAR-8 is 5.47 µM (inactive); with IGROV-1, 1.7 µM (inactive); in the assay with ACHN, 0.938 µM (active); with MDA-N, 3.33 µM (inactive); in the assay with SK-MEL-28 it was 4.86 µM (inactive); in the assay on HOP-92, 1.61 µM (inactive). In addition, the GI50 in the assay on TK-10 was 5.09 µM (inactive); in the assay on Malme-3M, 1.52 µM (inactive); with SF-268, 7.57 µM (inactive); in the assay on 786-0, 10.8 µM (inactive); with HL-60, 0.341 µM (active); in the assay on SF-539, 4.4 µM (inactive).
On to `CC(C)(C)c1cc2c(O)c(c1)Cc1cc(C(C)(C)C)cc(c1O)Cc1cc(C(C)(C)C)cc(c1O)Cc1cc(C(C)(C)C)cc(c1O)Cc1cc(C(C)(C)C)cc(c1O)Cc1cc(C(C)(C)C)cc(c1O)Cc1cc(C(C)(C)C)cc(c1O)Cc1cc(C(C)(C)C)cc(c1O)C2`, for which the GI50 in the assay on MDA-MB-435, in the assay with RPMI-8226, with KM12, in the assay with SN12C, in the assay with HT-29 and with MOLT-4 was > 50 µM (inactive) each time. The GI50 in the assay with OVCAR-8, in the assay on IGROV-1, in the assay on ACHN, in the assay with MDA-N, in the assay on SK-MEL-28 and with HOP-92 was > 50 µM (inactive) in each case. For the same compound, the GI50 in the assay on TK-10, with Malme-3M, in the assay on SF-268, with SK-MEL-2, in the assay with 786-0 and in the assay on HL-60 was > 50 µM (inactive) each time. For the same compound, the GI50 with SF-539 was > 50 µM (inactive).
For the compound `O=C(C/N=C(\CN(c1ccccc1)c1ccccc1)Oc1c([N+](=O)[O-])cc([N+](=O)[O-])cc1[N+](=O)[O-])N1CCNCC1`, the GI50 with MDA-MB-435, in the assay on RPMI-8226, in the assay on KM12, in the assay on SN12C, in the assay on HT-29 and with MOLT-4 was > 100 µM (inactive) in each case. Moreover, the GI50 was 61.7 µM (inactive) in the assay with OVCAR-8; 56.8 µM (inactive) in the assay on IGROV-1; > 100 µM (inactive) with ACHN; > 100 µM (inactive) in the assay with MDA-N; > 100 µM (inactive) in the assay on SK-MEL-28; 67.5 µM (inactive) with HOP-92. In addition, the GI50 in the assay with TK-10, in the assay on Malme-3M, in the assay with SF-268, in the assay on 786-0, with HL-60 and in the assay with SF-539 was > 100 µM (inactive) in each case.
